PMC10348910, “Epigenetic reprogramming of cell cycle genes by ACK1 promotes breast cancer resistance to CDK4/6 inhibitor” (Oncogene, 2023)

Legend:
[1] = system: MDA-MB-468 xenografts; experiment: MDA-MB-468 xenograft in mammary fat pad; format: in vivo, female SCID mice
Experimental: To validate these findings in breast tumors, MDA-MB-468 cells were injected in female SCID mice. Once palpable tumors were formed (5 weeks), mice were treated with vehicle (6% captisol), palbociclib (80 mg/Kg of body weight), (R)-9b (36 mg/Kg of body weight) by oral route, or (R)-9b (24 mg/Kg of body weight) by subcutaneous injection, five times a week.
(§1) Fig. 7 ACK1 inhibitor overcomes palbociclib-resistant breast cancer growth and metastasis. A 3 × 10^6 MDA-MB-468 cells were injected in the 4th inguinal mammary fat pad of female SCID mice. Once the tumors were palpable, the mice were treated with either vehicle (Captisol; n = 7), Palbociclib at 80 mg/kg (n = 6), or (R)-9b at 36 mg/Kg (n = 6) orally. In addition, mice were injected with (R)-9b at 24 mg/Kg (n = 7) subcutaneously. Mice were treated five times a week, for 22 days. B, C The tumors were harvested and photographed, and the weights were recorded. D Vehicle or (R)-9b treated breast cancer cells were subjected to ChIP using pY88-H4 antibody, followed by qPCR for CXCR4 gene. E CXCR4 mRNA transcript levels in vehicle or (R)-9b treated MDA-MB-231 cells. 18S rRNA was used as housekeeping gene. F MDA-MB-231 cells were transfected with ACK1 or scrambled siRNA, followed by qRT-PCR to determine CXCR4 mRNA transcript levels. G Representative lung metastatic deposits of MDA-MB-231 cells injected via the tail veins in female SCID mice, treated with either vehicle or 24 mg/Kg (R)-9b orally. H Graphical quantitation of lung metastatic deposit. I and J 5 × 10^5 luciferase expressing 4T1 cells were injected into 4th inguinal mammary fat pad of female BALB/c mice. Once the tumors were palpable, mice were treated with either vehicle or (R)-9b at 24 mg/Kg (n = 3, each) subcutaneously for 2 weeks, five times a week. The metastases were assessed using IVIS. Data are represented as the mean ± SEM. *p < 0.05; **p < 0.01; ***p < 0.001. For (A, C–F, I), p values were calculated using unpaired two-tailed Student’s t test.
All animal experiments were performed using the standards for humane care in accordance with the NIH Guide for the Care and Use of Laboratory Animals. Mice were obtained from Charles River Laboratories and experiments were performed according to IACUC protocols (IACUC # 20180259) approved in writing by Washington University in St. Louis Department of Comparative Medicine (DCM). 1.5 × 10^6 Cal-148 or MCF7, or 3 × 10^6 MDA-MB-468 cells were suspended in 200 µl of PBS with 50% matrigel (BD Biosciences) and were implanted subcutaneously into the mammary fat pad (between fourth and fifth inguinal) of female SCID C.B17 mice (n = 8 per group). Once the tumors were palpable (about 4–5 weeks), mice were randomly chosen for subcutaneous injection (Cal-148 and MCF7; 24 mg/Kg body weight) or given oral gavage with (R)-9b (MCF7; 36 mg/Kg body weight) resuspended in 6% Captisol (or 6% Captisol in PBS as vehicle), five times a week, for 4–5 weeks. Tumor volumes were measured twice a week using calipers. At the end of the study, all mice were humanely euthanized, tumors extracted and weighed.

[2] = system: CXCR4 mRNA; experiment: qRT-PCR of CXCR4 in MDA-MB-231 cells; format: cell-based
Experimental: as §1, with “G Representative lung metastatic deposits of MDA-MB-231 cells injected via the tail veins in female SCID mice, treated with either vehicle or 24 mg/Kg (R)-9b orally.” left out, “I and J 5 × 10^5 luciferase expressing 4T1 cells were injected into 4th inguinal mammary fat pad of female BALB/c mice. Once the tumors were palpable, mice were treated with either vehicle or (R)-9b at 24 mg/Kg (n = 3, each) subcutaneously for 2 weeks, five times a week.” left out, “Data are represented as the mean ± SEM. *p < 0.05; **p < 0.01; ***p < 0.001.” left out
Real-time quantitative PCR analyses were performed using the ABI PRISM 7900HT Sequence Detection System (Applied Biosystems) as described earlier. […] Data were analyzed using SDS software version 2.2.2 and exported into an Excel spreadsheet. […]

[3] = system: 78 targets (cell surface receptors, ion channels, kinases, nuclear hormone receptors, GPCRs and other relevant enzymes); experiment: DiscoverX SAFETYscan pharmacological profiling (78 assays)
Source text: We performed pharmacological profiling of (R)-9b, to identify undesirable off-target activity profile using DiscoverX SAFETYscan, which has a broad menu containing 78 assays, and provides functional data for cell surface receptors, ion channels, kinases, nuclear hormone receptors, GPCRs and other relevant enzymes, inhibition of which could cause significant toxicity in human clinical trials.

[4] = system: MCF7 xenografts; experiment: MCF7 xenograft in mammary fat pad; format: in vivo, female SCID mice; details: orally 36 mg/Kg or subcutaneously 24 mg/Kg
Experimental: Fig. 6 (R)-9b inhibits breast cancer xenograft tumor growth in vivo. A 2 × 10^6 Cal-148 cells were injected in the 4th inguinal mammary fat pad of female SCID mice. Once the tumors were palpable, the mice were treated subcutaneously with either vehicle (Captisol; n = 8) or (R)-9b at 24 mg/Kg (n = 8) five times a week, for 4 weeks. The tumor volumes were measured twice a week. B, C The tumors were harvested and photographed, and the weights were recorded. D RNA was prepared from the tumors, followed by qRT-PCR to determine the levels of CCNB1, CCNB2 and CDC20 mRNA (n = 3 each). E and F 2 × 10^6 MCF7 cells were injected in the 4th inguinal mammary fat pad of female SCID mice with continuous supplementation of estrogen. Once the tumors were palpable, the mice were treated with vehicle (Captisol; n = 7), (R)-9b at 24 mg/Kg subcutaneously (n = 8), or orally with (R)-9b at 36 mg/Kg (n = 8), five times a week, for 4 weeks. The tumors were harvested, their weights were recorded and photographed. G Tumor lysates were subjected to immunoblotting using pACK1, CCNB1, CCNB2, CDC20 and Actin antibodies (n = 3 each). H RNA was prepared from the tumors, followed by qRT-PCR to determine the levels of CCNB1, CCNB2 and CDC20 mRNA (n = 3 each). Data are represented as the mean ± SEM. *p < 0.05; **p < 0.01; ***p < 0.001. For (C) and (D), unpaired two-tailed Student’s t test, and for (E) and (H), one way ANOVA was performed.
In addition, effect of (R)-9b was assessed in ER^+/PR^+ breast cancer xenografts. Briefly, MCF7 cells were implanted in mammary fat pad of female SCID mice. Once the tumors were palpable, the mice were treated orally (36 mg/Kg) or injected subcutaneously with 24 mg/Kg of (R)-9b for 4 weeks. […] Further, RNA was isolated from the xenograft tumors and CDC20, CCNB1 and CCNB2 mRNA levels were examined.
All animal experiments were performed using the standards for humane care in accordance with the NIH Guide for the Care and Use of Laboratory Animals. […] Tumor volumes were measured twice a week using calipers. […]

SMILES: CN1CCN(c2ccc(Nc3ncc(Cl)c(NC[C@H]4CCCO4)n3)cc2)CC1 [(R)-9b]
- tumor weights ([1]; (R)-9b 36 mg/Kg oral or 24 mg/Kg subcutaneous, end of experiment): significant reduction in tumor weights
- xenograft tumor growth ([1]; palbociclib 80 mg/Kg oral, (R)-9b 36 mg/Kg oral or 24 mg/Kg subcutaneous, five times a week, 3 weeks): compromised tumors growth
- weights of the mice ([1]; palbociclib 80 mg/Kg, (R)-9b 36 mg/Kg oral or 24 mg/Kg subcutaneous): did not exhibit significant loss of weight
- histology (H&E) of heart, spleen, kidneys and livers ([1]; palbociclib 80 mg/Kg, (R)-9b oral and subcutaneous): did not reveal histological abnormalities
- CXCR4 transcription [2]: inhibited CXCR4 transcription
- off-target inhibition in SAFETYscan [3]: None of the 78 targets were inhibited significantly
- CDC20, CCNB1 and CCNB2 mRNA levels in tumors [4]: significant reduction
- CDC20, CCNB1 and CCNB2 protein levels in tumor lysates [4]: marked decrease
- xenograft tumor growth ([4]; 4 weeks): significant loss of tumor growth
